From US20090068290A1, “BIFEPRUNOX DOSES FOR TREATING SCHIZOPHRENIA” (priority 2006, published 2009)

Experiments:
Type in all cases: in vivo, human
[1] = system: patients with chronic schizophrenia; experiment: PANSS responders (reduction in PANSS total score), Clinical Study Four; conditions: FAS, LOCF
Description: (§1) METHODOLOGY: This study was a multinational, multicenter, randomized, double-blind, parallel-group, placebo-controlled, fixed-dose study. The study consisted of a 3- to 6-day antipsychotic-free run-in period, after which patients were randomised to 6 months of double-blind treatment with fixed doses of bifeprunox (20 mg/day (BX20) or 30 mg/day (BX30)) or placebo (PBO). Patients allocated to the BX groups were up-titrated from 0.25 mg/day over 7 days (BX20) or 8 days (BX30), and then continued on these doses for the remainder of the study. […] At predetermined time points, blood samples were obtained for drug concentration analysis of BX and its major metabolites (3′- and 4′-sulfate conjugates of BX), and pharmaco-economic assessments were performed.
CLINICAL STUDY FOUR: The proportion of patients with a ≧25%, ≧35%, ≧45%, or ≧55% reduction in PANSS total score relative to baseline at each visit (PANSS responders) is shown by LOCF (FIG. 4).

[2] = Weight, BMI and waist measurement, Clinical Study Four
Description: as §1

[3] = system: patients with chronic schizophrenia; experiment: CDSS total score, Clinical Study Four; conditions: FAS, ANCOVA; for CDSS total, Adjusted Mean Change from Baseline (LS mean): LOCF
Description: as §1

[4] = system: patients with chronic schizophrenia; experiment: PANSS positive subscale score, Clinical Study Four; conditions: FAS, ANCOVA; for PANSS positive subscale, Adjusted Mean Change from Baseline (LS mean): LOCF
Description: as §1

[5] = BX20 (bifeprunox 20 mg), Last post-Baseline observation, APTS
[6] = BX20 (bifeprunox 20 mg), Month 3, APTS
[7] = BX20 (bifeprunox 20 mg), Month 6, APTS
[8] = BX20 (bifeprunox 20 mg), Week 6, APTS
[9] = BX20 (bifeprunox 20 mg), visit printed as Baseline, APTS
[10] = BX30 (bifeprunox 30 mg), Last post-Baseline observation, APTS
[11] = BX30 (bifeprunox 30 mg), Month 3, APTS
[12] = BX30 (bifeprunox 30 mg), Month 6, APTS
[13] = BX30 (bifeprunox 30 mg), Week 6, APTS

Structure (SMILES): O=c1[nH]c2cccc(N3CCN(Cc4cccc(-c5ccccc5)c4)CC3)c2o1 [Bifeprunox, 7-[4-([1,1′-biphenyl]-3-ylmethyl)-1-piperazinyl]-2(3H)-benzoxazolone]
- proportion of patients with at least a 25% reduction in PANSS total score versus PBO ([1]; listed as BX20): statistically significantly larger than that in the PBO group from Week 9 onwards
- proportion of patients with at least a 25% reduction in PANSS total score versus PBO ([1]; listed as BX30): statistically significantly larger than that in the PBO group at Month 5 only
- BMI, Mean [2, 5]: 24.3
- BMI, Median [2, 5]: 23.7
- Change from Baseline in BMI, Mean [2, 5]: −0.4
- Change from Baseline in BMI, Median [2, 5]: 0.0
- Change from Baseline in Weight, Mean [2, 5]: -1.0 kg
- Change from Baseline in Weight, Median [2, 5]: 0.0 kg
- Waist measurement, Mean [2, 5]: 81.6
- Waist measurement, Median [2, 5]: 79.5
- Weight PCS High (Increase from baseline >= 7%), (%) [2, 5]: (2.8) %
- Weight PCS Low (Decrease from baseline >= 7%), (%) [2, 5]: (9.1) %
- Weight, Mean [2, 5]: 69.7 kg
- Weight, Median [2, 5]: 68.0 kg
- BMI, Mean [2, 6]: 23.9
- BMI, Median [2, 6]: 23.1
- Change from Baseline in BMI, Mean [2, 6]: −0.2
- Change from Baseline in BMI, Median [2, 6]: 0.0
- Change from Baseline in Waist Measurement, Mean [2, 6]: −1.1
- Change from Baseline in Waist Measurement, Median [2, 6]: 0.0
- Change from Baseline in Weight, Mean [2, 6]: -0.6 kg
- Change from Baseline in Weight, Median [2, 6]: 0.0 kg
- Waist measurement, Mean [2, 6]: 79.5
- Waist measurement, Median [2, 6]: 76.5
- Weight PCS High (Increase from baseline >= 7%), (%) [2, 6]: (0.0) %
- Weight, Mean [2, 6]: 68.1 kg
- Weight, Median [2, 6]: 66.0 kg
- BMI, Mean [2, 7]: 23.9
- BMI, Median [2, 7]: 23.1
- Change from Baseline in BMI, Mean [2, 7]: −0.2
- Change from Baseline in BMI, Median [2, 7]: 0.0
- Change from Baseline in Waist Measurement, Mean [2, 7]: −0.9
- Change from Baseline in Waist Measurement, Median [2, 7]: 0.0
- Change from Baseline in Weight, Mean [2, 7]: -0.6 kg
- Change from Baseline in Weight, Median [2, 7]: 0.0 kg
- Waist measurement, Mean [2, 7]: 79.4
- Waist measurement, Median [2, 7]: 77.7
- Weight PCS High (Increase from baseline >= 7%), (%) [2, 7]: (6.8) %
- Weight PCS Low (Decrease from baseline >= 7%), (%) [2, 7]: (10.2) %
- Weight, Mean [2, 7]: 68.2 kg
- Weight, Median [2, 7]: 67.0 kg
- BMI, Mean [2, 8]: 24.3
- BMI, Median [2, 8]: 23.8
- Change from Baseline in BMI, Mean [2, 8]: −0.2
- Change from Baseline in BMI, Median [2, 8]: 0.0
- Change from Baseline in Waist Measurement, Mean [2, 8]: −1.1
- Change from Baseline in Waist Measurement, Median [2, 8]: 0.0
- Change from Baseline in Weight, Mean [2, 8]: -0.6 kg
- Change from Baseline in Weight, Median [2, 8]: 0.0 kg
- Waist measurement, Mean [2, 8]: 81.6
- Waist measurement, Median [2, 8]: 78.0
- Weight PCS High (Increase from baseline >= 7%), (%) [2, 8]: (0.0) %
- Weight PCS Low (Decrease from baseline >= 7%), (%) [2, 8]: (4.8) %
- Weight, Mean [2, 8]: 69.7 kg
- Weight, Median [2, 8]: 67.0 kg
- Change from Baseline in Waist Measurement, Mean [2, 9]: −0.0
- Change from Baseline in Waist Measurement, Median [2, 9]: 0.0
- BMI, Mean [2, 10]: 24.5
- BMI, Median [2, 10]: 23.7
- Change from Baseline in BMI, Mean [2, 10]: −0.4
- Change from Baseline in BMI, Median [2, 10]: 0.0
- Change from Baseline in Waist Measurement, Mean [2, 10]: −0.4
- Change from Baseline in Waist Measurement, Median [2, 10]: 4.4
- Change from Baseline in Weight, Mean [2, 10]: -1.2 kg
- Change from Baseline in Weight, Median [2, 10]: 0.0 kg
- Waist measurement, Mean [2, 10]: 82.6
- Waist measurement, Median [2, 10]: 80.4
- Weight PCS High (Increase from baseline >= 7%), (%) [2, 10]: (2.7) %
- Weight PCS Low (Decrease from baseline >= 7%), (%) [2, 10]: (9.5) %
- Weight, Mean [2, 10]: 70.9 kg
- Weight, Median [2, 10]: 68.5 kg
- BMI, Mean [2, 11]: 24.4
- BMI, Median [2, 11]: 23.4
- Change from Baseline in BMI, Median [2, 11]: −0.1
- Change from Baseline in Waist Measurement, Mean [2, 11]: −0.4
- Change from Baseline in Waist Measurement, Median [2, 11]: 0.0
- Change from Baseline in Weight, Mean [2, 11]: -1.1 kg
- Change from Baseline in Weight, Median [2, 11]: -0.5 kg
- Waist measurement, Mean [2, 11]: 81.6
- Waist measurement, Median [2, 11]: 79.5
- Weight PCS Low (Decrease from baseline >= 7%), (%) [2, 11]: (11.4) %
- Weight, Mean [2, 11]: 70.1 kg
- Weight, Median [2, 11]: 68.0 kg
- BMI, Mean [2, 12]: 24.4
- BMI, Median [2, 12]: 23.7
- Change from Baseline in BMI, Mean [2, 12]: −0.0
- Change from Baseline in BMI, Median [2, 12]: 0.0
- Change from Baseline in Waist Measurement, Mean [2, 12]: −0.0
- Change from Baseline in Waist Measurement, Median [2, 12]: 0.1
- Change from Baseline in Weight, Mean [2, 12]: -0.1 kg
- Change from Baseline in Weight, Median [2, 12]: 0.0 kg
- Waist measurement, Mean [2, 12]: 81.1
- Waist measurement, Median [2, 12]: 78.0
- Weight PCS High (Increase from baseline >= 7%), (%) [2, 12]: (7.3) %
- Weight PCS Low (Decrease from baseline >= 7%), (%) [2, 12]: (7.3) %
- Weight, Mean [2, 12]: 71.4 kg
- Weight, Median [2, 12]: 70.0 kg
- BMI, Mean [2, 13]: 24.8
- BMI, Median [2, 13]: 23.9
- Change from Baseline in BMI, Mean [2, 13]: −0.3
- Change from Baseline in BMI, Median [2, 13]: 0.0
- Change from Baseline in Waist Measurement, Mean [2, 13]: −0.0
- Change from Baseline in Waist Measurement, Median [2, 13]: 0.0
- Change from Baseline in Weight, Mean [2, 13]: -0.9 kg
- Change from Baseline in Weight, Median [2, 13]: 0.0 kg
- Waist measurement, Mean [2, 13]: 83.9
- Waist measurement, Median [2, 13]: 80.0
- Weight PCS High (Increase from baseline >= 7%), (%) [2, 13]: (0.0) %
- Weight PCS Low (Decrease from baseline >= 7%), (%) [2, 13]: (4.7) %
- Weight, Mean [2, 13]: 72.2 kg
- Weight, Median [2, 13]: 70.0 kg
- CDSS total, Adjusted Mean Change from Baseline (LS mean) ([3]; Month 6, listed as BX20): 0.0
- CDSS total, Adjusted Mean Change from Baseline (LS mean) ([3]; Month 6, listed as BX30): 0.1
- CDSS total, Adjusted Mean Change from Baseline (LS mean) ([3]; Week 6, listed as BX20): −0.2
- CDSS total, Adjusted Mean Change from Baseline (LS mean) ([3]; Week 6, listed as BX30): −0.1
- mean CDSS total scores versus PBO, per-visit LOCF analysis ([3]; either BX group): no statistically significant differences
- PANSS positive subscale scores versus PBO, per-visit LOCF analysis ([4]; BX20 or BX30): statistically significantly superior to that with PBO from Week 6 onwards
- PANSS positive subscale, Adjusted Mean Change from Baseline (LS mean) ([4]; Month 6): 0.3
- PANSS positive subscale, Adjusted Mean Change from Baseline (LS mean) ([4]; Week 6, listed as BX20): −0.9
- PANSS positive subscale, Adjusted Mean Change from Baseline (LS mean) ([4]; Week 6, listed as BX30): −0.8
